The numbers were not newly measured in patent publication US20220202849A1, “PERK AS A TARGET FOR VIRUS THERAPEUTICS” (priority 2020, published 2022), which cites them from elsewhere.

The subject of the data set is PERK. As to conditions: as quoted with vendor catalog entry; read-out: PERK inhibitor IC50.

Turning to `Cc1cccc(CC(=O)N2CCc3c2ccc(-c2cn(C)c4ncnc(N)c24)c3F)n1` [GSK2656157], the half-maximal inhibitory concentration (IC50) is around 0.9 nM.
Consider `O=C(COc1ccc(Cl)cc1)N[C@H]1CC[C@@H](NC(=O)COc2ccc(Cl)cc2)CC1` [ISRIB (trans-isomer), ISRIB], for which the IC50 was around 5 nM.
Consider `Cn1cc(-c2ccc3c(c2)CCN3C(=O)Cc2cccc(C(F)(F)F)c2)c2c(N)ncnc21` [GSK2606414], for which the IC50 is […].

The term IC50 denotes the point on the concentration scale where inhibition reaches its midpoint.
